Source: patent US20090227606A1, “Methods for Preventing or Treating Acute and Chronic Pain” (priority 2006, published 2009)
“Also recorded” adds a separate entry of the source.

How the values were obtained:
GLT-1 mRNA = assay: Real Time RT-PCR of cultured astrocytes, GLT-1 mRNA; format: cell-based, rat
Procedure: (§1) After approximately 14 days (2 days after subplating into plates, DIV 14) astrocytes had formed a confluent monolayer. […] Phase contrast microscopy was then carried out in order to assess the morphology of cells after the various treatments. Length of astrocyte processes was quantified by measuring all processes in 2-3 phase contrast images/group by an independent observer, blinded to the treatment groups using Image J v1.34s (National Institutes of Health, Bethesda, Md.).
Total RNA was isolated from astrocyte cultures using the Qiagen RNeasy mini-kit (Qiagen Inc., Valencia, Calif.) according to the manufacturer's protocol for isolation of total RNA from animal cells. Reverse transcription (RT) was carried out using the high-capacity cDNA archive kit (Applied Biosystems, Foster City, Calif.) according to the vendor's protocol. Real-time RT-PCR reactions were carried out in a total reaction volume of 25 μL containing a final concentration of 1.5 U Platinum Taq DNA polymerase (Invitrogen Corporation, Carlsbad, Calif.); 20 mM Tris HCl (pH 8.4); 50 mM KCl; 3 mM MgCl2; 200 μM dGTP, dCTP, and dATP; 400 μM dUTP and 1 U of UDG (uracyl DNA glycosylase); 900 nM of forward and reverse primers; 300 nM Taqman probe; and 5 μL of cDNA (50 ng) from the RT step. The iCycler™ Multicolor Real-Time PCR detection system (Bio-Rad Laboratories, Hercules, Calif.) was used to quantify PCR product. The fluorescence and threshold values (CT) obtained were used to compare the relative amount of target mRNA in experimental groups to those of controls using the 2^−ΔΔC^T method (Livak, K. J. and T. D. Schmittgen. 2001. Methods 25:402-408). Each experiment was run twice and samples were run in duplicate. For each sample, the mean CT value for the control gene (GAPDH) was then subtracted from the mean CT value for the gene of interest (GLT-1, GLAST) to obtain a ΔCT value. The ΔCT values for the control group (untreated) were then averaged and subtracted from the ΔCT for the experimental groups to obtain the ΔΔCT. The relative fold change from control was then expressed by calculation of 2^−ΔΔC^T for each sample and the results are expressed as the group mean fold change±SEM.

GLAST [1] = assay: Western blot of cultured astrocytes, GLAST protein; format: cell-based, rat
Procedure: as §1
Cells were scraped into PBS containing a protease inhibitor cocktail (1:1000, Sigma Chemical Co., St. Louis, Mo.) and then lysed by sonication in 5 one-second pulses. The samples were stored at −80° C. until use. Total protein was determined using the Lowry method (DC assay, Bio-Rad, Hercules, Calif.). Forty micrograms of protein (diluted in sample buffer and boiled) and standard protein markers were subjected to SDS/7.5% polyacrylamide gel electrophoresis and transferred to polyvinylidene difluoride (PVDF) membranes. Nonspecific binding was blocked by incubation with 5% milk/PBS-Tween at room temperature for 1 hour followed by incubation overnight at 4° C. with rabbit anti-GLT-1 (1:500) or guinea pig anti-GLAST (1:2500). The following day, blots were washed and incubated for 1 hour at room temperature with goat anti-rabbit HRP-conjugated secondary (1:3000) or goat anti-guinea pig HRP-conjugated secondary antibody (1:5000) and visualized with enhanced chemiluminescence (ECL). Images were obtained using the Typhoon Imaging System (Amersham-GE Healthcare, Piscataway, N.J.). Finally, blots were incubated for 15 minutes in stripping buffer and reprobed with a monoclonal mouse anti-β-actin antibody (1:10,000) as a loading control. Densitometric analysis was performed using ImageQuant 5.2 (Molecular Dynamics, GE Healthcare, Piscataway, N.J.).

GLAST [2] = assay: Western blot of ipsilateral lumbar spinal cord, GLAST protein; format: in vivo, rat; settings: day 12 post-transection
Procedure: Tissue was collected from 4-5 rats/group on postoperative days 4 or 12. In order to obtain both mRNA and protein from the same tissue sample, the L5 region of the spinal cord (ipsilateral to the injury), was isolated and placed in PBS supplemented with protease inhibitor cocktail (1:1000, Sigma Chemical Co., St. Louis, Mo.) and RNase inhibitor (0.75 U/μL Ambion, Austin, Tex.). Samples were sonicated in five one-second bursts at half-maximal power, centrifuged at 6500 rpm for 15 minutes at 4° C. Protein-containing supernatants were collected and stored at −80° C. until further processing by Western blot analysis. The pellet was treated with TRIzol reagent (Invitrogen, Carlsbad, Calif.) for the extraction of total RNA according to the manufacturer's specifications.
Protein obtained from L5 lumbar spinal cord was quantified using the Lowry method (DC assay, Bio-Rad, Hercules, Calif.). Forty micrograms of protein and standard protein markers were subjected to SDS polyacrylamide gel electrophoresis (7.5% gel, Bio-Rad, Hercules, Calif.) and id transferred to polyvinylidene difluoride (PVDF, Bio-Rad, Hercules, Calif.) filters. Nonspecific binding was blocked by incubation with 5% milk/PBS-T at room temperature for 1 hour followed by incubation overnight at 4° C. with monoclonal guinea pig anti-GLT-1 or guinea pig anti-GLAST (1:2500, Chemicon). […]

CCCn1cnc2c1c(=O)n(CCCCC(C)=O)c(=O)n2C [propentofylline]
increase in GLT-1 mRNA (GLT-1 mRNA; day 3, high dose): 3 fold | induction of GLT-1 mRNA (GLT-1 mRNA; day 7, high dose): 20 fold | GLT-1 mRNA level, in words (GLT-1 mRNA; propentofylline 10, 100, 1000 μM, db-cAMP 250 μM, relative to GAPDH): enhancement of GLT-1 and GLAST mRNA levels in a dose-dependent manner; also recorded: dose-dependently induced GLT-1 and GLAST at the mRNA level | GLAST protein level, in words (GLAST [1]; 3 or 7 days, normalized to β-actin): dose-dependently increased levels of GLAST protein | increase in GLAST protein (GLAST [1]; 7-day treatment, 1000 μM): 6 fold | GLAST protein (GLAST [2]): further decreased by propentofylline treatment; also recorded: slight decrease
